Experiments:
human recombinant HDAC6 = molecular target: T1, human recombinant HDAC6 (Homo sapiens, UniProt Q9UBN7); test: In vitro HDAC enzyme activity inhibition assay (HDAC6); assay type: biochemical; details: for HDAC6 selectivity (fold): HDAC6 over HDAC1; for IC50: same protocol as the HDAC1 test, human recombinant HDAC6 (Calbiochem)
T1 construct: purchased Calbiochem Inc. 382180
T1 sequence (Q9UBN7 1-1215): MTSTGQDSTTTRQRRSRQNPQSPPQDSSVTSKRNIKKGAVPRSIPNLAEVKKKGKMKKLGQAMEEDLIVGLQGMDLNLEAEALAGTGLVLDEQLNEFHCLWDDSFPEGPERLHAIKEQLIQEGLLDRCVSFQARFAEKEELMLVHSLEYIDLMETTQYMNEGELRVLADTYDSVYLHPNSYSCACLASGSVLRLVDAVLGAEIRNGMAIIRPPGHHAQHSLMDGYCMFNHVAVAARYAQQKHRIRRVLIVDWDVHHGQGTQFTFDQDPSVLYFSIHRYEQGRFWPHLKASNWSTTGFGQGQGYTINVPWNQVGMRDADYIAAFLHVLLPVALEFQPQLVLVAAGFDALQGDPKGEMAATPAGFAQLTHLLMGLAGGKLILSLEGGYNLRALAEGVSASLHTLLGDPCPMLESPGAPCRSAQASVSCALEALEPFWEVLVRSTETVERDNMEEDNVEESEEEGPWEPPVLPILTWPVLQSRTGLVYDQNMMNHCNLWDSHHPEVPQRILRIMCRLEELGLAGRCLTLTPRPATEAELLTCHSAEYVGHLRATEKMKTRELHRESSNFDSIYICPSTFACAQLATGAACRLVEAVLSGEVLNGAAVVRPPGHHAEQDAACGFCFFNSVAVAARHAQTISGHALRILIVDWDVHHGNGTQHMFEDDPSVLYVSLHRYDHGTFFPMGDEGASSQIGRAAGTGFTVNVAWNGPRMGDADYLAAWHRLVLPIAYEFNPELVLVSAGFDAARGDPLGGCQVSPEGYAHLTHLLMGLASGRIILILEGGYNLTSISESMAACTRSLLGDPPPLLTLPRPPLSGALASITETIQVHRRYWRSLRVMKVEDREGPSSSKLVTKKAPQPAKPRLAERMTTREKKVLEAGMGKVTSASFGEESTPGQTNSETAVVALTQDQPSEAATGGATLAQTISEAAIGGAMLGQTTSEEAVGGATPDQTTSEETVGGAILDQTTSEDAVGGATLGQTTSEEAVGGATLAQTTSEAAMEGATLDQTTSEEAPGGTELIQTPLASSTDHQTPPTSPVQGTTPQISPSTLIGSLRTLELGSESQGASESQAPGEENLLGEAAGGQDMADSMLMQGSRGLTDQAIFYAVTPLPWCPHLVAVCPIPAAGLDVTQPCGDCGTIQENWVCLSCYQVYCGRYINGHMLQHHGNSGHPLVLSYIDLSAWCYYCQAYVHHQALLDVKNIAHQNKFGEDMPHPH
How it was run: (§1)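 Fluorimetric deacetylase kit: human recombinant HDAC1 or HDAC6 (0.3 μg) with 10 μM Fluor de Lys-SIRT1 substrate and 5-fold diluted compounds, 60 min at 30° C. Developer added for 30 min, fluorescence read at Ex 360/Em 460, IC50 calculated.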

human recombinant HDAC1 = molecular target: T2, human recombinant HDAC1 (Homo sapiens, UniProt Q13547); test: In vitro HDAC enzyme activity inhibition assay (HDAC1); assay type: biochemical; details: Fluor de Lys-SIRT1 substrate 10 μM, 30° C., 60 minutes, fluorescence
T2 construct: purchased Enzo Life Sciences, Inc. BML-SE456
How it was run: as §1

T2 sequence (Q13547 whole entry): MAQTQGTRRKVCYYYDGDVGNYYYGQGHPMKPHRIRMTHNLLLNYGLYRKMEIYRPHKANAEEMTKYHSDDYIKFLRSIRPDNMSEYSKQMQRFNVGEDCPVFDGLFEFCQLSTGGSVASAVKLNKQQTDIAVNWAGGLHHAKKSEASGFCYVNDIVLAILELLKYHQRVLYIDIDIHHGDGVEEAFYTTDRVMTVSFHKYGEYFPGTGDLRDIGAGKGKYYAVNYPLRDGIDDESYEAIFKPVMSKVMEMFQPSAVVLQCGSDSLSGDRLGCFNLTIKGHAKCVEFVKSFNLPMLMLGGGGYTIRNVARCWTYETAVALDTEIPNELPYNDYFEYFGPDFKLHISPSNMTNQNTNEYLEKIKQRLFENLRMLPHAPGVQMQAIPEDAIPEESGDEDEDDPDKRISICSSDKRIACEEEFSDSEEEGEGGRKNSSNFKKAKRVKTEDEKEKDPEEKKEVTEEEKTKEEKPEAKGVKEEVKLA

CN1CC2(C1)CN(S(=O)(=O)N(Cc1cn3ccc(-c4nnc(C(F)F)o4)cc3n1)c1ccccc1)C2 [Compound 4624, N-((7-(5-(difluoromethyl)-1,3,4-oxadiazol-2-yl)imidazo[1,2-a]pyridin-2-yl)methyl)-6-methyl-N-phenyl-2,6-diazaspiro[3.3]heptan-2-sulfonamide]
HDAC6 selectivity (fold) (human recombinant HDAC6): 595 fold
IC50 (human recombinant HDAC6): 0.084 µM
IC50 (human recombinant HDAC1): > 50 µM

CC(C)(C)OC(=O)N1CCC(S(=O)(=O)N(Cc2cn3ccc(-c4nnc(C(F)(F)F)o4)cc3n2)c2cccc(F)c2)CC1 [Compound 6893, tert-butyl 4-(N-(3-fluorophenyl)-N-((7-(5-(trifluoromethyl)-1,3,4-oxadiazol-2-yl)imidazo[1,2-a]pyridin-2-yl)methyl)sulfamoyl)piperidine-1-carboxylate]
HDAC6 selectivity (fold) (human recombinant HDAC6): 16 fold
IC50 (human recombinant HDAC6): 3.12 µM
IC50 (human recombinant HDAC1): > 50 µM

Reference: patent US12466827B2, “1,3,4-oxadiazole derivative compounds as histone deacetylase 6 inhibitor, and the pharmaceutical composition comprising the same” (CHONG KUN DANG PHARMACEUTICAL CORP., priority 2020, dated 2025)
